{
  "source": "patent US6281354A",
  "about": "“Analogs of duocarmycin and cc-1065” (The Scripps Research Institute, priority 1999, dated 2001)",
  "key": {"w794 DNA [1]": {"tested_on": "w794 DNA", "settings": "pH 7.5, earlier studies; cited from earlier work"}, "w836 DNA": {"tested_on": "w836 DNA", "assay": "DNA alkylation sites and relative rates within the six-base A sequence (5'-AAAAAA) of w836 DNA", "assay_type": "biochemical, SV40", "settings": "5'-AAAAAA"}, "[2]": {"tested_on": "duplex DNA (w794, w836, c988, c820, c1346)", "assay_type": "biochemical, SV40"}, "[3]": {"assay": "Calculated rate constant for acid-catalyzed solvolysis", "assay_type": "physicochemical"}, "DNA": {"tested_on": "DNA", "settings": "cited from earlier work"}, "w794 DNA [4]": {"tested_on": "w794 DNA", "assay": "Relative rates of DNA alkylation for (+)-1, 53 and 54 at the w794 5'-AATTA site", "assay_type": "biochemical, SV40", "procedure": "Modifications in the Trimethoxyindole Subunit: Role of the Methoxy Substituents. DNA alkylation by the natural enantiomers of 53-56 were compared with that of 1 in w794 DNA.\nRelative Rates of DNA Alkylation for (+)-1, 53, and 54. Following the procedure detailed above, Eppendorf tubes containing 5' end-labeled w794 DNA (9 μL) in TE buffer (pH 7.5) were treated with (+)-duocarmnycin SA, 53, or 54 (1 μL, 10^-5 M in DMSO). […] The solutions were mixed and incubated at 25° C. for 1, 3, 6, 12, 24, 48, and 72 h, respectively. Subsequent isolation of the alkylated DNA by EtOH precipitation, resuspension in TE buffer (10 μL, pH 7.5), thermolysis (30 min, 100° C.), concurrent PAGE, and autoradiography were conducted as detailed above. The relative rate for the alkylation at the 5'-AATTA site was derived from the slopes of the plots of percent integrated optical density (IOD) of the high affinity alkylation site cleavage bands versus time."}, "[5]": {"assay": "In vitro cytotoxic activity"}, "w794 DNA [6]": {"tested_on": "w794 DNA", "assay": "Rate of DNA alkylation at the single w794 high affinity site: pH and buffer dependence", "assay_type": "biochemical, SV40", "settings": "for change in rate of DNA alkylation over 2 pH units: 10 mM phosphate buffer, pH 6.0-8.1; for slope of plot of pH versus log κobs: pH 6-7; for pH dependence of the rate of DNA alkylation: pH 7-8", "procedure": "Rate of DNA Alkylation: pH Dependence. […] Because this was conducted using w794 DNA additionally containing >7000 base-pairs and multiple binding sites within the unlabeled portion of the DNA, the comparisons were conducted at concentrations that provide saturated binding and restrict the kinetic analysis to the pseudo-first order rate constant for alkylation. […] The relative lack of dependence on the acid concentration (pH) especially in the most relevant pH range of 7-8 in conjunction with the observations made in the accompanying paper has led us to propose an alternative source of reaction catalysis.\nRelative Rates of DNA Alkylation for (+)-1 at pH 6-8. Eppendorf tubes containing 5' end-labeled w794 DNA (9 μL) in phosphate buffer (10 mM) at pH 6.0, 6.6, 7.1, 7.6, and 8.1 were prepared. The solutions at each pH were treated with (+)-duocarmycin SA (1μL, 10^-6 M in DMSO), mixed and incubated at 25° C. for 0.5, 1.0, 1.5, 2.0 and 3.0 h. […] The reactions were stopped at each time interval by EtOH precipitation of the DNA. The alkylated DNA was resuspended in TE buffer (10 μL, pH 7.5) and heated at 100° C. for 30 min follwed by PAGE and autoradiography as detailed above.\nSince these observations sharply contrast the proposed important role of acid catalysis for activation of the agents toward DNA alkylation which has served as the basis for one prominent proposal for the origin of the DNA alkylation selectivity, we have examined in detail the pH dependence of the rate of DNA alkylation for duocarmycin SA (1) and CCBI-TMI over a physiologically relevant range. […] Between pH 6-7, the slope of the plot of pH versus log κobs was 0.2-0.3, far lower than that of 1.0 required of a first-order dependence on acid concentration."}, "w794 DNA [7]": {"tested_on": "w794 DNA", "assay": "DNA alkylation (thermal strand cleavage, PAGE) within w794 DNA", "assay_type": "biochemical, SV40"}, "[8]": {"assay": "Chemical/aqueous solvolysis reactivity followed by UV", "assay_type": "physicochemical", "source_text": "The solvolysis reactivities of N--BOC-CNA (78) and CNA (79) were followed spectrophotometrically by UV at both pH 3 (50% CH3 OH-buffer, buffer=4:1:20 v/v/v 0.1 M citric acid, 0.2 M Na2 HPO4, H2 O) and pH 7 (50% CH3 OH--H2 O). […] Particularly informative are comparisons of the benzo series of agents that differ only in the C-ring size (i.e., 76-79). Solvolysis reactivity smoothly increases through the series CBI<CBQ<CNA with both the N--BOC derivatives and the free NH derivatives.\nAqueous Solvolysis of N--BOC-CNA (78) and CNA (79). Samples of 78 (150 μg) and 79 (150 [g) were dissolved in CH3 OH (1.5 mL) and the resulting solutions were mixed with aqueous buffer (pH 3, 1.5 mL, 4:1:20 (v:v:v) 0.1 M citric acid, 0.2 M Na2 HPO4, and deionized H2 O respectively). Similarly, a solution of 78 (150 μg) in CH3 OH (1.5 mL) was mixed with deionized H2 O (pH 7, 1.5 mL). The UV spectra of the solutions were measured immediately after mixing with the appropriate aqueous solution. The blank and the solvolysis reaction solutions were stoppered, protected from light, and allowed to stand at 25° C. The total reaction times reflect those required to observe no further change in absorbance. For the solvolysis of 78 at pH 3, the UV spectrum was taken every 30 s for 10 min and then every 3 min for the next 40 min. The decrease of the absorbance at 319 nm was monitored. […] For the solvolysis of 78 at pH 7, the UV spectrum was monitored every 5 min for 19 h. […] For the solvolysis of 79 at pH 3, the UV spectrum was monitored every 2 min for the first 110 min and then every 10 min for the next 4 h. The decrease in the absorbance at 345 nm was recorded."}, "[9]": {"settings": "10^-5 M, 25° C., 1-72 h, 5'-d(AATTA)"}, "[10]": {"settings": "10^-6 M, 25° C., pH 7.6, 10 mM phosphate"}},
  "data": [
    {"smiles": "COC(=O)c1cc2c([nH]1)C(=O)C=C1N(C(=O)c3cc4cc(OC)c(OC)c(OC)c4[nH]3)CC3CC123", "note": "(stereo not drawn) [duocarmycin SA]", "values": [
      {"measurement": "relative rate of DNA alkylation at w794 high affinity site", "setting": "w794 DNA [1]", "result": 0.9, "unit": "×"},
      {"measurement": "AT-rich binding site covered in w836 DNA", "setting": "w836 DNA", "result": 3.5, "unit": "base-pair"},
      {"measurement": "alkylated adenines within six-base A-rich sequence of w836 DNA", "setting": "w836 DNA", "result": "each of the four 3' adenines"},
      {"measurement": "AT-rich adenine N3 alkylation selectivity (size of site)", "setting": "[2]", "result": 3.5, "unit": "base-pair"},
      {"measurement": "calculated rate constant for acid-catalyzed solvolysis, pH 7", "setting": "[3]; pH 7", "result": "1.08×10^-10 s^-1"},
      {"measurement": "calculated first-order rate constant for acid-catalyzed solvolysis, pH 7.6", "setting": "[3]", "result": "2.7×10^-11 s^-1"},
      {"measurement": "adenine N3 adduct formation (addition to least substituted cyclopropane carbon)", "setting": "DNA", "result": "95-100%"},
      {"measurement": "concentration dependence of the rate of DNA alkylation", "setting": "w794 DNA [4]; 10^-4 -10^-6 M", "result": "independent of agent concentration"},
      {"measurement": "relative rate of DNA alkylation κrel versus 53", "setting": "w794 DNA [4]; [9]", "result": "18-33"},
      {"measurement": "relative rate of DNA alkylation κrel, 1 versus 54", "setting": "w794 DNA [4]; [9]", "result": "1.3-2.3"},
      {"measurement": "cytotoxic / antitumor activity in words", "setting": "[5]", "result": "biologically the most potent"},
      {"measurement": "concentration dependence of the rate of DNA alkylation (pH study)", "setting": "w794 DNA [6]; 10^-4 -10^-6 M", "result": "independent of agent concentration"},
      {"measurement": "change in rate of DNA alkylation over 2 pH units", "setting": "w794 DNA [6]; 10^-6 M, 25° C.", "result": "< 2", "unit": "×"},
      {"measurement": "change in rate of DNA alkylation over 2 pH units", "setting": "w794 DNA [6]; 10^-6 M, 25° C., listed as (+)-duocarmycin SA (1)", "result": "< 3", "unit": "×"},
      {"measurement": "pseudo-first order rate constant for DNA alkylation, pH 7.1", "setting": "w794 DNA [6]; 10^-6 M, 25° C., pH 7.1, 5'-AATTA", "result": "1.69×10^-4 s^-1"},
      {"measurement": "pseudo first-order rate constant for DNA alkylation, pH 7.6", "setting": "w794 DNA [6]; [10]", "result": "1.58×10^-4 s^-1"},
      {"measurement": "slope of plot of pH versus log κobs", "setting": "w794 DNA [6]", "result": "0.2-0.3"},
      {"measurement": "pH dependence of the rate of DNA alkylation", "setting": "w794 DNA [6]", "result": "essentially no dependence"},
      {"measurement": "pH dependence of the rate of DNA alkylation", "setting": "w794 DNA [6]; listed as (+)-duocarmycin SA", "result": "the rate dependence on pH essentially disappeared"},
      {"measurement": "pH dependence of the rate of DNA alkylation", "setting": "w794 DNA [6]; listed as (+)-duocarmycin SA (1)", "result": "the rate dependence on pH essentially disappeared"},
      {"measurement": "t1/2 of DNA alkylation", "setting": "w794 DNA [6]; pH 7 / 7.1", "result": 1.1, "unit": "h"},
      {"measurement": "t1/2 of DNA alkylation, pH 7.6", "setting": "w794 DNA [6]; pH 7.6", "result": 1.2, "unit": "h"}
    ]},
    {"smiles": "COc1cc2cc(C(=O)N3C[C@H]4C[C@@]45C3=CC(=O)c3ccc(C#N)cc35)[nH]c2c(OC)c1OC", "note": "[CCBI-TMI]", "values": [
      {"measurement": "relative rate of DNA alkylation at w794 high affinity site", "setting": "w794 DNA [1]", "result": 2.5, "unit": "×"},
      {"measurement": "change in rate of DNA alkylation over 2 pH units", "setting": "w794 DNA [6]; 10^-6 M, 25° C.", "result": "< 3", "unit": "×"},
      {"measurement": "effect of EDTA on the rate of DNA alkylation", "setting": "w794 DNA [6]; Tris or phosphate buffer", "result": "had or no effect"},
      {"measurement": "slope of plot of pH versus log κobs", "setting": "w794 DNA [6]", "result": "0.2-0.3"},
      {"measurement": "pH dependence of the rate of DNA alkylation", "setting": "w794 DNA [6]", "result": "the rate dependence on pH essentially disappeared"},
      {"measurement": "faster alkylation of w794 high affinity site than (+)-1", "setting": "w794 DNA [6]; throughout the pH range", "result": "1.9-2.5 ×"}
    ]},
    {"smiles": "COc1c(O)c2c(c3cc(C(=O)N4CCc5c4c(O)c(OC)c4[nH]c(C(=O)N6C[C@H]7C[C@@]78C6=CC(=O)c6[nH]cc(C)c68)cc54)[nH]c13)CCN2C(N)=O", "note": "[(+)-CC-1065, reference compound]", "values": [
      {"measurement": "high affinity alkylation site in w794 DNA", "setting": "w794 DNA [7]", "result": "5'-AATTA"},
      {"measurement": "AT-rich adenine N3 alkylation selectivity (size of site)", "setting": "[2]", "result": 5, "unit": "base-pair"},
      {"measurement": "calculated first-order rate constant for acid-catalyzed solvolysis, pH 7.6", "setting": "[3]", "result": "2.5×10^-11 s^-1"},
      {"measurement": "adenine N3 adduct formation (addition to least substituted cyclopropane carbon)", "setting": "DNA", "result": "> 85", "unit": "%"},
      {"measurement": "solvolysis reactivity/stability in words or rank order", "setting": "[8]", "result": "remarkable stability of 1-3 even at pH 5"},
      {"measurement": "pseudo first-order rate constant for DNA alkylation, pH 7.6 (unit not given)", "setting": "w794 DNA [6]; [10]", "result": "3.36×10^-4"}
    ]},
    {"smiles": "COC(=O)C1(C)NC2=C(C1=O)[C@@]13C[C@@H]1CN(C(=O)c1cc4cc(OC)c(OC)c(OC)c4[nH]1)C3=CC2=O", "note": "(stereo partly drawn) [duocarmycin A]", "values": [
      {"measurement": "adenine N3 adduct formation (addition to least substituted cyclopropane carbon)", "setting": "DNA", "result": "86-92%"},
      {"measurement": "solvolysis reactivity/stability in words or rank order", "setting": "[8]", "result": "remarkable stability of 1-3 even at pH 5"}
    ]}
  ]
}
